Assay: effect of including leucine in the patch formula on appetite levels
Assay type: in vivo
Conditions: inclusion of leucine in the formula of the adhesive matrix; found experimentally, no method or data given
Description: In an exemplary embodiment, adhesive matrix 130 may further include an anti-inflammatory. While dimethyl sulfoxide and menthol may in and of themselves act as anti-inflammatories, additional ingredients acting as dedicated anti-inflammatories may be added. For the purposes of this specification, “anti-inflammatory” is used to mean any medication, compound, or ingredient recognized by the FDA as useful for anti-inflammatory purposes. Yet further, adhesive matrix 130 may include amino acids. Leucine is an exemplary amino acid which may be incorporated into the formula. Leucine may function in the patch to synthesize sterols, and may also act to regulate blood pressure, energy levels, and hormone secretion. […] Adhesive matrix 130 may further comprises glycerin. Glycerin may act as a plasticizer and humectant to preserve the flexibility and formulaic integrity of adhesive matrix 130, and may also provide additional benefits of relieving skin irritation and reducing interference with skin oils when transdermal patch 100 is placed in contact with skin.

## CC(C)C[C@H](N)C(=O)O [leucine, Leucine]
  appetite levels: reduce appetite levels

From US20250090477A1, “TRANSDERMAL PATCH PROVIDING IMPROVED PERMEABILITY AND COMPOSITION” (HydraPatch Inc., priority 2019, published 2025)
